Source: patent US6737383B1, “Herbicidal oxadiazolidines” (priority 1999, dated 2004)

Tests used:
blackgrass = test: Test B pre/postemergence blackgrass; format: in vivo, Alopecurus myosuroides
Outline: (§1)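 Herbicidal effect was estimated by eye on a ten-point control scale after plants spent twelve to sixteen days in a greenhouse following soil or foliar treatment. Foliar sprays targeted plants at one to four leaves; all doses were formulated in a non-phytotoxic solvent with surfactant.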

sugar beet = test: Test B pre/postemergence sugar beet; format: in vivo, Beta vulgaris
Outline: as §1

corn = test: Test B pre/postemergence corn; format: in vivo, Zea mays
Outline: as §1

purple nutsedge = test: Test B pre/postemergence purple nutsedge; format: in vivo, Cyperus rotundus
Outline: as §1

velvetleaf = test: Test B pre/postemergence velvetleaf; format: in vivo, Abutilon theophrasti
Outline: as §1

surinam grass = test: Test B pre/postemergence surinam grass; format: in vivo, Brachiaria decumbens
Outline: as §1

giant foxtail = test: Test B pre/postemergence giant foxtail; format: in vivo, Setaria faberii
Outline: as §1

pigweed = test: Test B pre/postemergence pigweed; format: in vivo, Amaranthus retroflexus
Outline: as §1

wild oat = test: Test B pre/postemergence wild oat; format: in vivo, Avena fatua
Outline: as §1

wheat = test: Test B pre/postemergence wheat; format: in vivo, Triticum aestivum
Outline: as §1

rape = test: Test B pre/postemergence rape; format: in vivo, Brassica napus
Outline: as §1

cocklebur = test: Test B pre/postemergence cocklebur; format: in vivo, Xanthium strumarium
Outline: as §1

crabgrass = test: Test B pre/postemergence crabgrass; format: in vivo, Digitaria sanguinalis
Outline: as §1

bedstraw = test: Test B pre/postemergence bedstraw; format: in vivo, Galium aparine; conditions: Preemergence
Outline: as §1

soybean = test: Test B pre/postemergence soybean; format: in vivo, Glycine max
Outline: as §1

morningglory = test: Test B pre/postemergence morningglory; format: in vivo, Ipomoea hederacea
Outline: as §1

[1] = Postemergence, Rate 62 g/ha, scale 0 to 10, 0 is no effect, 10 is complete control
[2] = Postemergence, Rate 125 g/ha, scale of 0 to 10 where 0 is no effect and 10 is complete control
[3] = Preemergence, Rate 62 g/ha, scale of 0 to 10 where 0 is no effect and 10 is complete control
[4] = Preemergence, Rate 125 g/ha, scale of 0 to 10 where 0 is no effect and 10 is complete control
[5] = Preemergence, Rate 250 g/ha, scale 0 (no effect) to 10 (complete control)
[6] = Preemergence, Rate 500 g/ha, scale of 0 to 10 where 0 is no effect and 10 is complete control
[7] = Rate 250 g/ha, Postemergence, scale 0 to 10, 0 is no effect, 10 is complete control
[8] = Rate 500 g/ha, Postemergence, scale 0 to 10, 0 is no effect, 10 is complete control

SMILES: CC(C)N(C(=O)n1oc(=O)n(CCCCl)c1=O)c1ccc(F)cc1 [Compound 713]
- Plant response rating, Blackgrass (blackgrass; [1]): 1
- Blackgrass plant response rating (blackgrass; [2]): 3
- Blackgrass plant response rating (blackgrass; [3]): 5
- Plant response rating, Blackgrass (blackgrass; [4]): 8
- Blackgrass plant response rating (blackgrass; [5]): 9
- Plant response rating, Blackgrass (blackgrass; [6]): 9
- Blackgrass plant response rating (blackgrass; [7]): 7
- Blackgrass plant response rating (blackgrass; [8]): 7
- Plant response rating, Sugarbeets (sugar beet; [1]): 0
- Sugarbeets plant response rating (sugar beet; [2]): 0
- Sugarbeets plant response rating (sugar beet; [3]): 3
- Plant response rating, Sugarbeets (sugar beet; [4]): 4
- Sugarbeets plant response rating (sugar beet; [5]): 7
- Sugarbeets plant response rating (sugar beet; [7]): 0
- Sugarbeets plant response rating (sugar beet; [8]): 5
- Plant response rating, Corn (corn; [1]): 0
- Corn plant response rating (corn; [2]): 0
- Corn plant response rating (corn; [3]): 0
- Plant response rating, Corn (corn; [4]): 0
- Corn plant response rating (corn; [5]): 0
- Corn plant response rating (corn; [7]): 0
- Corn plant response rating (corn; [8]): 5
- Plant response rating, Nutsedge (purple nutsedge; [1]): 0
- Nutsedge plant response rating (purple nutsedge; [2]): 0
- Nutsedge plant response rating (purple nutsedge; [3]): 0
- Plant response rating, Nutsedge (purple nutsedge; [4]): 0
- Nutsedge plant response rating (purple nutsedge; [5]): 0
- Nutsedge plant response rating (purple nutsedge; [7]): 0
- Nutsedge plant response rating (purple nutsedge; [8]): 3
- Plant response rating, Velvetleaf (velvetleaf; [1]): 3
- Velvetleaf plant response rating (velvetleaf; [2]): 6
- Velvetleaf plant response rating (velvetleaf; [3]): 2
- Plant response rating, Velvetleaf (velvetleaf; [4]): 5
- Velvetleaf plant response rating (velvetleaf; [5]): 5
- Velvetleaf plant response rating (velvetleaf; [7]): 6
- Velvetleaf plant response rating (velvetleaf; [8]): 7
- Plant response rating, B. signalgrass (surinam grass; [1]): 0
- B. signalgrass plant response rating (surinam grass; [2]): 3
- B. signalgrass plant response rating (surinam grass; [3]): 5
- Plant response rating, B. signalgrass (surinam grass; [4]): 7
- B. signalgrass plant response rating (surinam grass; [5]): 8
- Plant response rating, B. signalgrass (surinam grass; [6]): 9
- B. signalgrass plant response rating (surinam grass; [7]): 5
- B. signalgrass plant response rating (surinam grass; [8]): 7
- Plant response rating, Giant foxtail (giant foxtail; [1]): 4
- Giant foxtail plant response rating (giant foxtail; [2]): 9
- Giant foxtail plant response rating (giant foxtail; [3]): 10
- Plant response rating, Giant foxtail (giant foxtail; [4]): 10
- Giant foxtail plant response rating (giant foxtail; [5]): 10
- Giant foxtail plant response rating (giant foxtail; [7]): 9
- Giant foxtail plant response rating (giant foxtail; [8]): 9
- Plant response rating, Redroot pigweed (pigweed; [1]): 2
- Redroot pigweed plant response rating (pigweed; [3]): 6
- Plant response rating, Redroot pigweed (pigweed; [4]): 7
- Redroot pigweed plant response rating (pigweed; [5]): 8
- Redroot pigweed plant response rating (pigweed; [7]): 9
- Redroot pigweed plant response rating (pigweed; [8]): 9
- Plant response rating, Wild oats (wild oat; [1]): 0
- Wild oats plant response rating (wild oat; [2]): 0
- Wild oats plant response rating (wild oat; [3]): 2
- Plant response rating, Wild oats (wild oat; [4]): 5
- Wild oats plant response rating (wild oat; [5]): 8
- Wild oats plant response rating (wild oat; [7]): 1
- Wild oats plant response rating (wild oat; [8]): 5
- Plant response rating, Wheat (wheat; [1]): 0
- Wheat plant response rating (wheat; [2]): 1
- Wheat plant response rating (wheat; [3]): 0
- Plant response rating, Wheat (wheat; [4]): 0
- Wheat plant response rating (wheat; [5]): 1
- Wheat plant response rating (wheat; [7]): 2
- Wheat plant response rating (wheat; [8]): 2
- Plant response rating, Rape (rape; [1]): 0
- Rape plant response rating (rape; [2]): 0
- Rape plant response rating (rape; [3]): 4
- Plant response rating, Rape (rape; [4]): 4
- Rape plant response rating (rape; [5]): 8
- Rape plant response rating (rape; [7]): 6
- Rape plant response rating (rape; [8]): 6
- Plant response rating, Cocklebur (cocklebur; [1]): 1
- Cocklebur plant response rating (cocklebur; [2]): 2
- Cocklebur plant response rating (cocklebur; [3]): 0
- Plant response rating, Cocklebur (cocklebur; [4]): 0
- Cocklebur plant response rating (cocklebur; [5]): 0
- Plant response rating, Cocklebur (cocklebur; [6]): 0
- Cocklebur plant response rating (cocklebur; [7]): 3
- Cocklebur plant response rating (cocklebur; [8]): 6
- Plant response rating, Crabgrass (crabgrass; [1]): 2
- Crabgrass plant response rating (crabgrass; [2]): 9
- Crabgrass plant response rating (crabgrass; [3]): 10
- Plant response rating, Crabgrass (crabgrass; [4]): 10
- Crabgrass plant response rating (crabgrass; [5]): 10
- Crabgrass plant response rating (crabgrass; [7]): 9
- Crabgrass plant response rating (crabgrass; [8]): 9
- Bedstraw plant response rating (bedstraw; Rate 62 g/ha, scale of 0 to 10 where 0 is no effect and 10 is complete control): 0
- Plant response rating, Bedstraw (bedstraw; Rate 125 g/ha, scale of 0 to 10 where 0 is no effect and 10 is complete control): 0
- Bedstraw plant response rating (bedstraw; Rate 250 g/ha, scale 0 (no effect) to 10 (complete control)): 2
- Plant response rating, Bedstraw (bedstraw; Rate 500 g/ha, scale of 0 to 10 where 0 is no effect and 10 is complete control): 6
- Plant response rating, Soybean (soybean; [1]): 3
- Soybean plant response rating (soybean; [2]): 4
- Soybean plant response rating (soybean; [3]): 0
- Plant response rating, Soybean (soybean; [4]): 0
- Soybean plant response rating (soybean; [5]): 0
- Soybean plant response rating (soybean; [7]): 5
- Soybean plant response rating (soybean; [8]): 5
- Plant response rating, Morningglory (morningglory; [1]): 2
- Morningglory plant response rating (morningglory; [2]): 3
- Morningglory plant response rating (morningglory; [3]): 0
- Plant response rating, Morningglory (morningglory; [4]): 0
- Morningglory plant response rating (morningglory; [5]): 0
- Morningglory plant response rating (morningglory; [7]): 7
- Morningglory plant response rating (morningglory; [8]): 10
